Experimental data published in US7511061B2, “Triazoles as farnesyl transferase inhibitors” (Janssen Pharmaceutica N.V., priority 1999, dated 2009).

These molecules were tested against farnesyl protein transferase (FPTase) (Homo sapiens, UniProt P49354+P49356) (assay: In vitro assay for inhibition of farnesyl protein transferase). Settings: test dose of 10^−7 M.
Format: biochemical
Protocol: An in vitro assay for inhibition of farnesyl transferase was performed essentially as described in WO 98/40383, pages 33-34.

Structure (SMILES)	inhibition at 0.1 µM [%]
COc1cc(C(=O)N(Cc2ccc(F)cc2F)Cc2nncn2Cc2ccc(C#N)cc2)nc2ccccc12 [compound 298]	≥ 10
N#Cc1ccc(Cn2cnnc2CN(CCc2ccc(Br)cc2)C(=O)c2ccc3ccccc3n2)cc1 [compound 269]	≥ 10
N#Cc1ccc(Cn2cnnc2CN(Cc2ccc(F)cc2F)C(=O)c2ccc(Br)s2)cc1 [compound 218]	≥ 10
N#Cc1ccc(Cn2cnnc2CN(Cc2ccc(F)cc2F)C(=O)c2cc(Br)cc3c2OCC3)cc1 [compound 291]	≥ 10
N#Cc1ccc(Cn2cnnc2CN(Cc2ccc(F)cc2F)C(=O)c2cccc(Br)c2)cc1 [compound 243]	≥ 10
Cc1ccc(Br)cc1C(=O)N(Cc1ccc(F)cc1F)Cc1nncn1Cc1ccc(C#N)cc1 [compound 314]	≥ 10
Cc1ccccc1-c1cc(C(=O)N(Cc2ccc(F)cc2F)Cc2nncn2Cc2ccc(C#N)cc2)ccc1C [compound 260]	≥ 10
N#Cc1ccc(Cn2cnnc2CN(CCc2ccc(Cl)cc2)C(=O)c2ccc3ccccc3n2)cc1 [compound 264]	≥ 10
COC(=O)c1cc(C)nc(N(Cc2nnc[nH]2)Cc2ccc(F)cc2F)[n+]1Cc1ccc(C#N)cc1 [compound 255]	≥ 10
N#Cc1ccc(Cn2cnnc2CN(Cc2ccc(F)cc2F)C(=O)c2nc3ccccc3nc2O)cc1 [compound 301]	≥ 10
N#Cc1ccc(Cn2cnnc2CN(Cc2ccc(F)cc2)C(=O)c2ccc3ccccc3n2)cc1 [compound 297]	≥ 10
N#Cc1ccc(Cn2cnnc2CN(CCc2ccc(Br)cc2)C(=O)c2cc3ccccc3s2)cc1 [compound 223]	≥ 10
N#Cc1ccc(Cn2cnnc2CN(Cc2ccc(F)cc2F)C(=O)c2cccc(Br)n2)cc1 [compound 285]	≥ 10
N#Cc1ccc(Cn2cnnc2CN(Cc2ccc(F)cc2F)C(=O)c2cccc(-c3ccsc3)n2)cc1 [compound 278]	≥ 10
Cc1ccc(C(=O)N(CCc2ccc(Br)cc2)Cc2nncn2Cc2ccc(C#N)cc2)cc1C [compound 233]	≥ 10
Cc1ccc(C(=O)N(Cc2ccc(F)cc2F)Cc2nncn2Cc2ccc(C#N)cc2)cc1-c1ccc(F)c(Cl)c1 [compound 224]	≥ 10
N#Cc1ccc(Cn2cnnc2CN(Cc2ccc(F)cc2F)C(=O)c2cc3ccccc3oc2=O)cc1 [compound 252]	≥ 10
N#Cc1ccc(Cn2cnnc2CN(Cc2cccc(F)c2F)C(=O)c2ccc3ccccc3n2)cc1 [compound 307]	≥ 10
Cc1ccc(C(=O)N(Cc2ccc(F)cc2F)Cc2nncn2Cc2ccc(C#N)cc2)cc1-c1cc(Cl)cc(Cl)c1 [compound 308]	≥ 10
N#Cc1ccc(Cn2cnnc2CN(CCC(c2ccccc2)c2ccccc2)C(=O)C2CCN(S(=O)(=O)c3ccc(F)cc3)CC2)cc1 [compound 261]	≥ 10
N#Cc1ccc(Cn2cnnc2CN(Cc2ccc(Cl)cc2Cl)C(=O)c2ccc3ccccc3n2)cc1 [compound 284]	≥ 10
N#Cc1ccc(Cn2cnnc2CN(Cc2cc(F)cc(F)c2)C(=O)c2ccc3ccccc3n2)cc1 [compound 305]	≥ 10
N#Cc1ccc(Cn2cnnc2CN(Cc2cc(C(F)(F)F)cc(C(F)(F)F)c2)C(=O)c2ccc3ccccc3n2)cc1 [compound 226]	≥ 10
N#Cc1ccc(Cn2cnnc2CN(c2ccc(Oc3ccccc3)cc2)c2nccc(C(F)(F)F)n2)cc1 [compound 257]	≥ 10

Structure (SMILES)	inhibition at 0.1 µM [%]
N#Cc1ccc(Cn2cnnc2CN(Cc2c(F)cccc2F)C(=O)c2ccc3ccccc3n2)cc1 [compound 303]	≥ 10
CC1=C(C(=O)N(Cc2ccc(F)cc2F)Cc2nncn2Cc2ccc(C#N)cc2)Cc2ccccc21 [compound 258]	≥ 10
Cc1ccc(C(=O)N(Cc2ccc(F)cc2F)Cc2nncn2Cc2ccc(C#N)cc2)cc1C [compound 262]	≥ 10
Cc1ccc(C(=O)N(Cc2ccc(F)cc2F)Cc2nncn2Cc2ccc(C#N)cc2)cc1-c1ccsc1 [compound 288]	≥ 10
N#Cc1ccc(Cn2cnnc2CN(CCc2ccc(Br)cc2)C(=O)c2ccc(Br)o2)cc1 [compound 219]	≥ 10
N#Cc1ccc(Cn2cnnc2CN(Cc2ccc(F)cc2F)C(=O)c2ccc3ccccc3n2)nc1 [compound 295]	≥ 10
N#Cc1ccc(Cn2cnnc2CN(Cc2ccccc2)C(=O)c2ccc3ccccc3n2)cc1 [compound 232]	≥ 10
Cc1cccc(Cc2nnc(CN(c3ccc(Oc4ccccc4)cc3)S(=O)(=O)c3ccc(-c4ccc(F)c(Cl)c4)cc3C)n2Cc2cccc(C)n2)n1 [compound 230]	≥ 10
N#Cc1ccc(Cn2cnnc2CN(CCc2ccc(Br)cc2)C(=O)c2cccc(Br)c2)cc1 [compound 222]	≥ 10
N#Cc1ccc(Cn2cnnc2CN(Cc2ccccc2Cl)C(=O)c2ccc3ccccc3n2)cc1 [compound 294]	≥ 10
N#Cc1ccc(Cn2cnnc2CN(Cc2ccccc2F)C(=O)c2ccc3ccccc3n2)cc1 [compound 306]	≥ 10
N#Cc1ccc(Cn2cnnc2CN(Cc2ccc(F)cc2F)C(=O)c2ccc(-c3ccc(F)cc3)o2)cc1 [compound 274]	≥ 10
COc1ccc2oc(C(=O)N(Cc3ccc(F)cc3F)Cc3nncn3Cc3ccc(C#N)cc3)cc2c1 [compound 268]	≥ 10
COc1ccccc1/C=C/C(=O)N(Cc1ccc(F)cc1F)Cc1nncn1Cc1ccc(C#N)cc1 [compound 267]	≥ 10
N#Cc1ccc(Cn2cnnc2CN(Cc2ccc(F)cc2F)C(=O)/C=C/c2cccc(Br)c2)cc1 [compound 241]	≥ 10
N#Cc1ccc(Cn2cnnc2CN(Cc2ccc(F)cc2F)C(=O)/C=C/c2ccc(Cl)c(Cl)c2)cc1 [compound 250]	≥ 10
N#Cc1ccc(Cn2cnnc2CN(Cc2ccc(F)cc2F)C(=O)/C=C/c2cccc(C(F)(F)F)c2)cc1 [compound 231]	≥ 10
N#Cc1ccc(Cn2cnnc2CN(Cc2ccc(F)cc2F)C(=O)c2ccc(-c3cc(Cl)cc(Cl)c3)o2)cc1 [compound 296]	≥ 10
N#Cc1ccc(Cn2cnnc2CN(Cc2ccc(F)cc2F)C(=O)c2ccc(-c3cccc(C(F)(F)F)c3)o2)cc1 [compound 292]	≥ 10
N#Cc1ccc(Cn2cnnc2CN(Cc2ccc(Cl)c(Cl)c2)C(=O)c2ccc3ccccc3n2)cc1 [compound 286]	≥ 10
Cc1ccccc1-c1cccc(C(=O)N(Cc2ccc(F)cc2F)Cc2nncn2Cc2ccc(C#N)cc2)c1 [compound 242]	≥ 10
N#Cc1ccc(Cn2cnnc2CN(CCc2ccc(Br)cc2)C(=O)c2ccc3ccccc3c2)cc1 [compound 265]	≥ 10
N#Cc1ccc(Cn2cnnc2CN(Cc2ccc(F)cc2F)C(=O)c2ccc(Br)o2)cc1 [compound 229]	≥ 10
N#Cc1ccc(Cn2cnnc2CN(CCc2ccc(F)cc2)C(=O)c2ccc3ccccc3n2)cc1 [compound 276]	≥ 10

Structure (SMILES)	inhibition at 0.1 µM [%]
Cc1cccc(/C=C/C(=O)N(Cc2ccc(F)cc2F)Cc2nncn2Cc2ccc(C#N)cc2)c1 [compound 254]	≥ 10
N#Cc1ccc(Cn2cnnc2CN(Cc2ccc(F)cc2F)C(=O)/C=C/c2cc(F)cc(C(F)(F)F)c2)cc1 [compound 245]	≥ 10
N#Cc1ccc(Cn2cnnc2CN(Cc2ccc(F)cc2F)C(=O)c2cccc(Cl)c2)cc1 [compound 246]	≥ 10
Cc1cc(C(=O)N(Cc2ccc(F)cc2F)Cc2nncn2Cc2ccc(C#N)cc2)ccc1Br [compound 277]	≥ 10
Cc1nnc(CN(Cc2ccc(F)cc2F)C(=O)c2ccc3ccccc3n2)n1Cc1ccc(C#N)cc1 [compound 311]	≥ 10
N#Cc1ccc(Cn2cnnc2CN(Cc2ccc(F)cc2F)C(=O)c2ccc3ccccc3n2)cc1 [compound 300]	≥ 10
N#Cc1ccc(Cn2cnnc2CN(Cc2ccc(F)cc2F)C(=O)c2cc3ccccc3o2)cc1 [compound 299]	≥ 10
N#Cc1ccc(Cn2cnnc2CN(Cc2ccc(F)cc2F)C(=O)C2=Cc3ccccc3OC2)cc1 [compound 289]	≥ 10
Cc1cccc(C(=O)N(Cc2ccc(F)cc2F)Cc2nncn2Cc2ccc(C#N)cc2)c1 [compound 253]	≥ 10
N#Cc1ccc(Cn2cnnc2CN(Cc2ccc(F)cc2F)C(=O)c2cccc(-c3ccccc3C(F)(F)F)c2)cc1 [compound 259]	≥ 10
N#Cc1ccc(Cn2cnnc2CN(CCc2ccc(Br)cc2)C(=O)c2cc3ccccc3o2)cc1 [compound 251]	≥ 10
N#Cc1ccc(Cn2cnnc2CN(Cc2cccc(Cl)c2)C(=O)c2ccc3ccccc3n2)cc1 [compound 275]	≥ 10
N#Cc1ccc(Cn2cnnc2CN(Cc2c(F)cccc2F)c2ccc(Oc3ccccc3)cc2)cc1 [compound 234]	≥ 10
N#Cc1ccc(Cn2cnnc2CN(C(=O)c2ccc3ccccc3n2)c2ccc(Oc3ccccc3)cc2)cc1 [compound 256]	≥ 10
N#Cc1ccc(Cn2cnnc2CN(Cc2ccc(F)cc2F)C(=O)/C=C/c2ccccc2Cl)cc1 [compound 249]	≥ 10
Cc1ccc(C(=O)N(Cc2ccc(F)cc2F)Cc2nncn2Cc2ccc(C#N)cc2)cc1-c1cc(Cl)ccc1Cl [compound 221]	≥ 10
COc1ccc(CCN(Cc2nncn2Cc2ccc(C#N)cc2)C(=O)c2ccc3ccccc3n2)cc1 [compound 236]	≥ 10
COc1cc(Cn2cnnc2CN(Cc2ccc(F)cc2F)C(=O)c2ccc3ccccc3n2)ccc1[N+](=O)[O-] [compound 290]	≥ 10
N#Cc1ccc(Cn2cnnc2CN(CCSCc2c(F)cccc2Cl)C(=O)c2ccc3ccccc3n2)cc1 [compound 271]	≥ 10
N#Cc1ccc(Cn2cnnc2CN(Cc2ccc(F)cc2F)C(=O)c2cccc(-c3ccsc3)c2)cc1 [compound 239]	≥ 10
N#Cc1ccc(Cn2cnnc2CN(Cc2ccc(F)cc2F)C(=O)c2ccc3ccccc3c2)cc1 [compound 315]	≥ 10
C/C(=C\c1ccccc1)C(=O)N(Cc1ccc(F)cc1F)Cc1nncn1Cc1ccc(C#N)cc1 [compound 282]	≥ 10
